“Also recorded” adds a separate entry of the source.
What was measured:
B. uniformis AgshD = assay: In vitro aglycone liberation by B. uniformis gshD deletion mutant (LC-MS); design: species or system Bacteroides uniformis ATCC 8492; conditions: role: substrate; B. uniformis AgshD (FIGS. 5A, 5B)
Experimental: (§1) FIGS. 5A and 5B show microbiome-mediated polyphenol aglycone liberation. […] Step 2: Spent media was filter-sterilized. Step 3: C. difficile was grown in spent media from either vehicle or polydatin (top).
(§2) Generation of Bacteroides gene deletion mutants: Clean deletion mutants were created by allelic replacement whereby Bacteroides uniformis ATCC 8492 gshD (BACUNI_00919)was deleted. A modified pKNOCK-bla-ermGb suicide vector, pKNOCK-bla-ermGb_pheS*, that was previously engineered with a counter-selection system mediated by a variant phenylalanyl-tRNA synthetase (PheSA303G), lethal in the presence of 4-chloro-phenylalanine was leveraged. To generate deletion constructs, 1 kb regions flanking the genomic region-of-interest were amplified by PCR (Platinum SuperFi PCR Master Mix), purified, and cloned into the pKNOCK-bla-ermGb_pheS* plasmid in a three-piece ligation reaction. To mobilize resulting plasmids into Bacteroides, a triparental mating strategy was implemented. Overnight cultures of Bacteroides grown in BSG were diluted 50-fold into fresh pre-reduced BSG and grown to early exponential phase (OD600 ~0.1). The recipient strain was centrifuged at 4,000 rpm for 5 minutes and resuspended in 200 μL of 1× PBS. One-day-old E. coliDH5α lambda pir donor strain and E. coliDH5α helper strain with pRK 231 were scrapped from LB agar plates into 200 μL of 1× PBS. […]

C. difficile M7404 = assay: In vitro polydatin bioactivation and C. difficile antagonism by conditioned (spent) media of B. uniformis AgshD; assay type: cell-based, Clostridioides difficile; conditions: polydatin 500 μM, 1/2-diluted, C. difficile M7404 growth 12 h (FIG. 5A)
Experimental: as §1, §2

In the case of OC[C@H]1O[C@@H](Oc2cc(O)cc(/C=C/c3ccc(O)cc3)c2)[C@H](O)[C@@H](O)[C@@H]1O [polydatin], the “liberation of resveratrol from polydatin by gshD mutant” value (B. uniformis AgshD) is reported as “lacking the ability to metabolize polydatin; also recorded: ablated in B. uniformis AgshD” and the “anti-C. difficile activity of conditioned media from B. uniformis gshD mutant grown with polydatin” value (C. difficile M7404) is reported as “ablated in B. uniformis AgshD”.
